Experimental data taken from EP4755885A1 (Shanghai Hansoh Biomedical Co., Ltd., priority 2023, dated 2025).

Columns and labels:
human GLP-1 receptor [1] = molecular target: T1, human GLP-1 receptor (Homo sapiens, UniProt P43220); test: cAMP production in cell line stably transformed with human GLP1 receptor, 30 min co-incubation (HTRF); assay type: cell-based; conditions: CHO-K1/GLP-1R/CRE-luc cells, stimulation for 0.5 h, read-out: EC50
T1 construct: expressed in transfected cells
Experimental: (§1) The purpose of this assay example is to test the ability of the compound to activate the human GLP-1 receptor on cell surface. The EC50 for stimulated cAMP production after activation characterizes the ability of the compound to activate the human GLP-1 receptor.
In this experiment, the compound and cells were co-incubated for 30 min.
(§2) Frozen cell line CHO-K1/GLP-1R/CRE-luc stably transformed with human GLP1 receptor was removed from a liquid nitrogen tank, and was placed in a 37°C water bath for rapid thawing. The cells were resuspended in DMEM/F12 medium, and after centrifugation, were washed once. The cells were resuspended in an experimental buffer, i.e., DMEM/F12 medium containing 0.1% casein. After centrifugation, cell density was adjusted using the experimental buffer. The cells were plated onto a 384-well plate at a density of 1500 cells/5 µL/well. Then, each well was added with 2.5 µL of IBMX working solution prepared with the buffer, the final concentration of IBMX being 0.5 mM, and 2.5 µL of a serially diluted compound sample (starting from […], 3-fold dilution, 12 concentrations). The plate was centrifuged at 1000 rpm for 1 min, and was stood for incubation at 37°C for 0.5 h. Determination was performed using the Cisbio cAMP - Gs Dynamic kit. cAMP-d2 and anti-cAMP-Eu3+-Cryptate were diluted 18-fold and 20-fold respectively with cAMP Lysis & Detection Buffer, and were respectively mixed homogeneously. Each well was added with 5 µL of diluted cAMP-d2 solution, and the plate was centrifuged at 1000 rpm for 1 min, and shaken for 30 seconds for homogeneous mixing. Then, each well was added with 5 µL of diluted anti-cAMP-Eu3+-Cryptate solution, and the plate was centrifuged at 1000 rpm for 1 min and was incubated in the dark at room temperature for 1 h. HTRF signals were read using the Biotek Synergy H1 microplate reader, the excitation wavelength being 320 nm and the emission wavelengths being 620 nm and 665 nm.
(§3) The signal-to-signal ratio was calculated (665 nm/620 nm * 10,000). Nonlinear fitting between the signal-to-signal ratio and the sample concentration was performed in GraphPad Prism 10 using a four-parameter equation to obtain the EC50 value.

[2] = Pharmacokinetic evaluation in rats, oral administration; parameters: species or system SD rats; conditions: rat, in vivo, p.o. 5 mg/kg, plasma; for MRT inf: read-out: MRT 0-∞
Experimental: SD rats were used as test animals to study the pharmacokinetic behavior of the following example compounds, administered orally at a dose of 5 mg/kg, in the plasma of the rats. SD rats, 3 per group, male. […] An example compound was weighed and added to a 4 mL glass bottle, and the solution was added. […] Sonication was performed for 10 min to obtain a colorless clear solution having a concentration of 0.5 mg/mL. […] The blood samples were placed in EDTA-K2 tubes and centrifuged at 6000 rpm at 4°C for 6 min to separate plasma, which was stored at -80°C. […] • Liquid phase conditions: Shimadzu LC-20AD pump • Mass spectrometry conditions: AB Sciex API 4000 mass spectrometer • Chromatographic column: phenomenex Gemiu 5 um C18 50 × 4.6 mm • Mobile phase: Solution A was 0.1% formic acid aqueous solution, and Solution B was methanol • Flow rate: 1.0 mL/min • Elution time: 0-4.0 min, the eluent was as follows: […] The results of the rat pharmacokinetic experiment are shown in the table below: Table 5: Pharmacokinetic parameters of oral administration of the compound of the present invention in rats

[3] = Pharmacokinetic evaluation in mice, oral administration; assay type: in vivo, Balb/c mice; conditions: p.o. 5 mg/kg, plasma; for AUC(0-inf) / AUC(0-t) / Cmax / Tmax / MRT inf: mouse, in vivo, po; for MRT inf: read-out: MRT 0-∞
Experimental: Balb/c mice were used as test animals to study the pharmacokinetic behavior of the compound of the present invention in mice (plasma) at a dose of 5 mg/kg administered orally and 1 mg/kg administered intravenously.
Balb/c mice, 3 per group, male.
(§4) Preparation of drug for oral administration: 10%PEG400/10%PG/80% glycine buffer (100 mM glycine, 64 Mm NaOH, […]) buffer.
10 ml of PEG400, 10 ml of PG, and 80 ml of (100 mM glycine, 64 Mm NaOH, pH = 9) were measured into a 100 ml volumetric flask, vortexed, mixed homogeneously, and sonicated to obtain a clear solution.
Single PK: An example compound was weighed into a 4 mL glass bottle. The solution was added, and sonication was performed for 10 min to obtain a colorless clear solution having a concentration of 0.5 mg/mL.
The solution was added, and sonication was performed for 10 min to obtain a colorless clear solution having a concentration of 0.5 mg/mL.
Three Balb/c mice, male, respectively administered p.o. after fasting overnight, at a dose of 5 mg/kg and in an administration volume of 10 mL/kg.
The blood samples were placed in EDTA-K2 anticoagulant tubes and centrifuged at 6000 rpm at 4°C for 6 min to separate plasma, which was stored at -80°C. The mice were fed 4 h after administration.
(§5) • 1) 40 µL of a plasma sample was added with 160 µL of acetonitrile for precipitation, and after mixing, the mixture was centrifuged at 3500 × g for 5 to 20 min. • 2) The supernatant solution after treatment was taken for LC/MS/MS analysis of the concentration of the test compound. The LC/MS/MS analysis instrument was AB Sciex API 4000 Qtrap.
• Liquid phase condition: Shimadzu LC-20AD pump • Chromatographic column: Agilent ZORBAX XDB-C18 (50×2.1 mm, 3.5 µm) Mobile phase: Solution A was 0.1% formic acid aqueous solution, and Solution B was acetonitrile • Flow rate: 0.4 mL/min • Elution time: 0-4.0 min, the eluent was as follows:
Main pharmacokinetic parameters were calculated using WinNonlin 6.1.

[4] = Pharmacokinetic evaluation in Macaca fascicularis monkeys, oral administration; assay type: in vivo; conditions: cynomolgus monkey, p.o. 5 mg/kg, plasma
Experimental: Macaca fascicularis monkeys were used as test animals to study the pharmacokinetic behavior of the compound of the present invention, administered orally at a dose of 5 mg/kg, in Macaca fascicularis monkeys (plasma).
Macaca fascicularis monkeys, 3 per group, male.
as §4
(§6) Single PK: The compound of the present invention was weighed into a 100 mL glass bottle, and the solution was added. The pH was first adjusted with 1 M NaOH until the compound dissolves to obtain a clear solution, and then the pH was readjusted to pH 9.0-9.5 with 1 M HCl. Sonication was performed for 10 min to obtain a colorless clear solution having a concentration of 1 mg/mL.
Three Macaca fascicularis monkeys, male, respectively administered p.o. after fasting overnight, at a dose of 5 mg/kg and in an administration volume of 5 mL/kg.
(§7) Blood collection: 0.3 mL of blood was collected from the forelimb vein of the Macaca fascicularis monkeys before administration and at 0.25, 0.5, 1, 2, 4, 6, 8, and 24 h after administration. The blood samples were placed in EDTA-K2 anticoagulant tubes and centrifuged at 6000 rpm at 4°C for 6 min to separate plasma, which was stored at -80°C. The Macaca fascicularis monkeys were fed 4 h after administration.
as §5
(§8) • Liquid phase condition: Shimadzu LC-20AD pump • Chromatographic column: Agilent ZORBAX XDB-C18 (50×2.1 mm, 3.5 µm) Mobile phase: Solution A was 0.1% formic acid aqueous solution, and Solution B was acetonitrile • Flow rate: 0.4 mL/min • Elution time: 0-4.0 min, the eluent was as follows: […]

[5] = Pharmacokinetic evaluation in beagles, oral administration; assay type: in vivo; conditions: dog, po, p.o. 2 mg/kg, plasma
Experimental: Beagles were used as test animals to study the pharmacokinetic behavior of the compound of the present invention, administered orally at a dose of 2 mg/kg, in beagles (plasma).
Beagles, 3 per group, male.
as §4
as §6, with “of 0.4” for “of 1”
Three beagles, male, respectively administered p.o. after fasting overnight, at a dose of 2 mg/kg and in an administration volume of 5 mL/kg.
as §7, with “beagles” for “Macaca fascicularis monkeys”
as §5, §8

human GLP-1 receptor [6] = molecular target: T1, human GLP-1 receptor; test: cAMP production in cell line stably transformed with human GLP1 receptor, 2 h co-incubation (HTRF); assay type: cell-based; conditions: CHO-K1/GLP-1R/CRE-luc cells, stimulation for 2 h, read-out: EC50
Experimental: as §1
In this experiment, the compound and cells were co-incubated for 2 h.
as §2, with “for 2” for “for 0.5”
as §3

[7] = not marked single PK (cassette PK)

T1 sequence (P43220 24-463): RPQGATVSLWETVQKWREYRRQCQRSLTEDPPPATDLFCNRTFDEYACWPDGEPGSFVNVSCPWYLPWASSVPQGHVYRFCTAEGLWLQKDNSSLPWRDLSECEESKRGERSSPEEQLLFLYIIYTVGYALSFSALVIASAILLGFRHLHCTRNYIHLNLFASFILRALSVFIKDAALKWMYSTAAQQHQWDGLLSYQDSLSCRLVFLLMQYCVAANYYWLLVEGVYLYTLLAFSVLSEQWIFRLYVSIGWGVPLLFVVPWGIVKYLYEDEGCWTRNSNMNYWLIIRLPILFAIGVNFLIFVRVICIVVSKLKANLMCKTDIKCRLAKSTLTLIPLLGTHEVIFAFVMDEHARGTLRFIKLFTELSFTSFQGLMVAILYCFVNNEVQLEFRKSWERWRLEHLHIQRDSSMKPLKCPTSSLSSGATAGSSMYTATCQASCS

Compound | EC50 (human GLP-1 receptor [1]) [nM] | AUC(0-inf) [2] [ng·h/mL] | AUC(0-t) [2] [ng·h/mL] | Cmax [2] [ng/mL] | Tmax [2] [h] | half-life [2] [h] | MRT inf [2] [h] | AUC(0-inf) ([3]; single PK) [ng·h/mL] | AUC(0-t) ([3]; single PK) [ng·h/mL] | Cmax ([3]; single PK) [ng/mL] | Tmax ([3]; single PK) [h] | MRT inf ([3]; single PK) [h] | tl/2 ([3]; single PK) [h] | other results
Cc1cc(-n2nc3c(c2-n2ccn(-c4ccc(N=S(C)(C)=O)cc4F)c2=O)[C@H](C)N(C(=O)c2cc4cc([C@H]5CCOC(C)(C)C5)ccc4n2[C@@]2(c4noc(=O)[nH]4)C[C@@H]2C)CC3)cc(C)c1F [Example 1] | 0.37 |  |  |  |  |  |  |  |  |  |  |  |  | 
Cc1cc(-n2nc3c(c2-n2ccn(-c4ccc5c(c4)CCc4nnc(C)n4-5)c2=O)[C@H](C)N(C(=O)c2cc4cc([C@H]5CCOC(C)(C)C5)ccc4n2[C@@]2(c4noc(=O)[nH]4)C[C@@H]2C)CC3)cc(C)c1F [Example 8] | 0.51 |  |  |  |  |  |  |  |  |  |  |  |  | 
Cc1cc(-n2nc3c(c2-n2ccn(-c4ccc5c(c4F)C4(CC4)C(=O)N5C)c2=O)[C@H](C)N(C(=O)c2cc4cc([C@H]5CCOC(C)(C)C5)ccc4n2[C@@]2(c4noc(=O)[nH]4)C[C@@H]2C)CC3)cc(C)c1F [Example 15] | 0.32 |  |  |  |  |  |  |  |  |  |  |  |  | 
Cc1cc(-n2nc3c(c2-n2ccn(-c4ccc5c(cnn5C5CC5)c4F)c2=O)[C@H](C)N(C(=O)c2cc4cc([C@H]5CCOC(C)(C)C5)ccc4n2[C@@]2(c4noc(=O)[nH]4)C[C@@H]2C)CC3)cc(C)c1F [Example 25] |  | 37300 | 28500 | 1960 | 6 | 10.5 | 16.4 |  |  |  |  |  |  | AUC(0-inf) [3, 7]: 39000 ng·h/mL; AUC(0-t) [3, 7]: 30500 ng·h/mL; Cmax [3, 7]: 2060 ng/mL; Tmax [3, 7]: 2 h; MRT inf [3, 7]: 15.2 h; tl/2 [3, 7]: 10.7 h
Cc1cc(-n2nc3c(c2-n2ccn(-c4ccc5c6c(nn5C)CCCOc46)c2=O)[C@H](C)N(C(=O)c2cc4cc([C@H]5CCOC(C)(C)C5)ccc4n2[C@@]2(c4noc(=O)[nH]4)C[C@@H]2C)CC3)cc(C)c1F [Example 35] |  | 14100 | 12400 | 1110 | 4.7 | 7.2 | 11.5 | 41000 | 32900 | 3070 | 1.2 | 13.9 | 10.3 | 
Cc1cc(-n2nc3c(c2-n2ccn(-c4ccc5c(cnn5C5CC5)c4F)c2=O)[C@H](C)N(C(=O)c2cc4cc([C@H]5CCOC(C)(C)C5)ccc4n2[C@@]2(c4noc(=O)[nH]4)[C@@H]4COC[C@@H]42)CC3)cc(C)c1F [Example 65-1] |  |  |  |  |  |  |  | 10900 | 10600 | 1220 | 2.7 | 6.5 | 4.8 | AUC(0-inf) [4]: 30800 ng·h/mL; AUC(0-t) [4]: 29700 ng·h/mL; Cmax [4]: 4460 ng/mL; Tmax [4]: 2 h; half-life [4]: 5.6 h; MRT inf ([4]; read-out: MRT 0-∞): 7.5 h; AUC(0-inf) [5]: 43900 ng·h/mL; AUC(0-t) at 24 h [5]: 41000 ng·h/mL; half-life [5]: 5.9 h; Cmax ([5]; read-out: Cmax): 4360 ng/mL; MRT inf ([5]; read-out: MRT 0-∞): 8.1 h; Tmax ([5]; read-out: tmax): 2.8 h; EC50 (human GLP-1 receptor [6]): 0.06 nM
